The values that follow come from PMC5962708, “Structure-Based Design, Synthesis, Biological Evaluation, and Molecular Docking of Novel PDE10 Inhibitors With Antioxidant Activities” (Frontiers in Chemistry, 2018).

Test [1] has as its target T1, PDE10A catalytic domain (residues 446-789) (Homo sapiens, UniProt Q9Y233).
T1 construct: coding the catalytic domain (residues 446-789); inferred from the pET15b vector and the Ni-NTA purification) (N); made in house; host or cells: E. coli BL21 (Codonplus, Stratagene)
The test can be described thus: PDE10A enzymatic assay (3H-cGMP hydrolysis, scintillation counting). The conditions noted are these: for inhibition at 1 µM: compound concentration 1 μM, read-out: PDE10 inhibitory assay Inhibition ratio (1 μM) (%); for IC50: mean of three independent determinations, 3H-cGMP substrate, read-out: PDE10 inhibitory assay IC50. It is filed as biochemical. The protocol: The recombinant pET15b-PDE10A plasmid coding the catalytic domain (residues 446-789) was subcloned and purified according to the following protocols previously reported (Li et al., [2015]). Then it was transferred into E. coli strain BL21 (Codonplus, Stratagene). The E. coli cells carrying the recombinant plasmid were cultured in an 2XYT medium (containing 100 μg/mL ampicillin and 30 μg/mL chloramphenicol) at 37°C until OD600 = 0.6-0.8. And then, 1 mM isopropyl-β-D-thiogalactopyranoside was added in to induce the PDE10A protein expression at 20°C for 24 h. The nickel nitriloacetic acid (Ni-NTA) column (Qiagen) was used for purifying PDE10A proteins. The concentration of the PDE10 fractions was estimated based on the absorbance at 280 nm (calculated by the ProtParam software).
The enzymatic activities of the catalytic domains of PDE10A were performed using ^3H-cGMP solution in the assay buffer of 50 mM Tris pH = 7.5, 4 mM MgCl2, 1 mM DTT, and ^3H-cGMP giving 20,000–30,000 cpm after the reaction terminated per assay. To a solution (DMSO) of test compounds in different concentration, the PDE10A enzyme in the assay buffer was added to perform the enzymatic reaction and then incubated at room temperature for 15 min. The assay was then terminated by addition of 0.2 M ZnSO4, Subsequently, 0.2 N Ba(OH)2 was added to precipitate the reaction product ^3H-GMP, whereas unreacted ^3H-cGMP remained in the supernatant. The radioactivity in the supernatant was measured in 2.5 mL Ultima Gold liquid scintillation cocktails (PerkinElmer) by a liquid scintillation counter (PerkinElmer 2910). The IC50 values of test compounds at PDE10A enzymes were measured by repeating of three independent experiments using the nonlinear regression method.

Test [2] is described as follows: Antioxidant assay: oxygen radical absorbance capacity fluorescein (ORAC-FL) method. The conditions noted are these: AAPH 12 mM, fluorescein 150 nM, pH 7.4, 37°C, samples 1–10 μM. Here is the method:
The modified oxygen radical absorbance capacity fluorescein (ORAC-FL) method was performed to determine the antioxidant activity (Ou et al., [2001]; Dávalos et al., [2004]). The reaction was diluted with 75 mM phosphate buffer (pH = 7.4), and the volume of the final reaction mixture was 200 μL in well. Test compound (20 μL) and fluorescein (120 μL, 150 nM final concentration) were placed in the well of a black 96 well optical bottom plates. After the mixture was incubated at 37°C for 15 min, AAPH solution (60 μL, 12 mM final concentration) was added rapidly. The plate was placed in a Spectrafluor Plus plate reader (Tecan, Crailsheim, Germany) and the fluorescence was recorded every minute for 4 h with an excitation wavelength at 485 nm and emission wavelength at 535 nm. Trolox was used as standard (1–8 μM, final concentration). A blank (fluorescein + AAPH) with phosphate buffer instead of test compounds and trolox calibration were performed for the assays of antioxidants. The samples were measured at different concentration (1–10 μM). All the reaction mixtures were prepared fourfold, and at least three independent assays were performed for each sample. Fluorescence in time course was normalized on basis of the blank (without antioxidants). The ORAC-FL values were calculated as the reported method. Final ORAC-FL values were expressed in μM of trolox equivalents. Ferulic acid was used as the positive reference compound, showing an ORAC-FL value of 1.6 trolox equivalents.

Another test deals with PDE10A. Also noted: method as in Siuciak et al., 2006a. The conditions noted are these: ref Siuciak et al., 2006a; read-out: IC50 toward PDE10A; cited from earlier work.

Values joined by “and” are separate entries in the source; they are usually repeats but may differ in a detail not shown here. Equal values may be shown once.

T1 sequence (Q9Y233 712-1055): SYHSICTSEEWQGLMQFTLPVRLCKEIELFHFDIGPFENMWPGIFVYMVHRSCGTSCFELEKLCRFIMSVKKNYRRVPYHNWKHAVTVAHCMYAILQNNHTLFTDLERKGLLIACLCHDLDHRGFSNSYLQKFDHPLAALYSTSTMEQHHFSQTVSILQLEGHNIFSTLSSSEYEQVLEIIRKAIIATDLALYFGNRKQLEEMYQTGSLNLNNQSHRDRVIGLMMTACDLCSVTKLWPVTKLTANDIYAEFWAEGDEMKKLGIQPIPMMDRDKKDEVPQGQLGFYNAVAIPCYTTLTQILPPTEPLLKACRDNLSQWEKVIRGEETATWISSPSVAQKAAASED

By IC50 is commonly meant the midpoint of a concentration-inhibition curve. Regarding `COc1cc2ncnc(NC(C)CCc3c[nH]c4ccccc34)c2cc1OC` (stereo not drawn) [Compound 12], in test [1], the inhibition at 1 µM was found to be 84%; the IC50 is < 1000 nM and 240 nM. Further, the “ORAC (oxygen radical absorbance capacity)” value (“ORAC” below) in test [2] is 1.3 trolox equivalents and 1.3 ± 0.2 trolox equivalents.

Take `COc1cc2ncnc(NCCc3c[nH]c4ccc(Br)cc34)c2cc1OC` [Compound 11h, N-(2-(5-bromo-1H-indol-3-yl)ethyl)-6,7-dimethoxyquinazolin-4-amine]: in test [1], the inhibition at 1 µM stood at 66%. Also, the “ORAC” value in test [2] was determined as 1.9 ± 0.1 trolox equivalents.

Regarding `COc1cc2ncnc(NCCc3nc4ccccc4[nH]3)c2cc1OC` [Compound 13, N-(2-(1H-benzo[d]imidazol-2-yl)ethyl)-6,7-dimethoxyquinazolin-4-amine], in test [1], the inhibition at 1 µM turned out to be 80%; the IC50 was < 1000 nM and 680 nM. Besides, the “ORAC” value in test [2] is given as 0.15 ± 0.02 trolox equivalents.

For `COc1cc(/C=C/C(=O)O)ccc1O` [Ferulic acid, reference compound], the “ORAC” value in test [2] is 1.6 trolox equivalents and 1.6 ± 0.1 trolox equivalents.

Regarding `COc1ccc(Cc2nccc3cc(OC)c(OC)cc23)cc1OC` [Papaverine], in the test on PDE10A, the IC50 is 10 to 300 nM.

In the case of `COc1cc2ncnc(N3CCOCC3)c2cc1OC(=O)CCCCC1CCSS1` (stereo not drawn) [Compound 8c, 7-methoxy-4-morpholinoquinazolin-6-yl 5-(1,2-dithiolan-3-yl)pentanoate], the inhibition at 1 µM in test [1] was 24%. Also, the “ORAC” value in test [2] is on record as 0.3 ± 0.01 trolox equivalents.

For `COc1cc2ncnc(NCCc3c[nH]c4ccc(C)cc34)c2cc1OC` [Compound 11g, 6,7-dimethoxy-N-(2-(5-methyl-1H-indol-3-Yl)ethyl)quinazolin-4-amine], the inhibition at 1 µM in test [1] was 64%. Moreover, in test [2], the “ORAC” value turned out to be 1.0 ± 0.2 trolox equivalents.

Consider `COc1cc2ncnc(N3CCOCC3)c2cc1OCCc1c[nH]c2ccccc12` [Compound 8a, 4-(6-(2-(1H-indol-3-yl)ethoxy)-7-methoxyquinazolin-4-yl) morpholine], for which the inhibition at 1 µM in test [1] was 57%. The “ORAC” value in test [2] is 1.0 trolox equivalents and 1.0 ± 0.1 trolox equivalents.

Regarding `COc1cc2ncnc(NCCc3c[nH]c4ccc(O)cc34)c2cc1OC` [Compound 11e, 3-(2-((6,7-dimethoxyquinazolin-4-yl)amino)ethyl)-1H-indol-5-ol], in test [1], the inhibition at 1 µM worked out at 76%; the IC50 was < 1000 nM and 640 nM. Besides, the “ORAC” value in test [2] was 2.3 trolox equivalents and 2.3 ± 0.2 trolox equivalents.

On to `COc1cc2ncnc(NCCc3c[nH]c4cc(F)ccc34)c2cc1OC` [Compound 11f, N-(2-(6-fluoro-1H-indol-3-yl)ethyl)-6,7-dimethoxyquinazolin-4-amine], for which, in test [1], the inhibition at 1 µM stood at 78%; the concentration for half-maximal inhibition (IC50) was < 1000 nM and 330 nM. In test [2], the “ORAC” value is 1.0 trolox equivalents and 1.0 ± 0.1 trolox equivalents.

As for `COc1ccc2[nH]cc(CC(C)Nc3ncnc4cc(OC)c(OC)cc34)c2c1` (stereo not drawn) [Compound 11d, 6,7-dimethoxy-N-(1-(5-methoxy-1H-indol-3-yl)propan-2-yl)quinazolin-4-amine], the inhibition at 1 µM in test [1] was 56%. Moreover, the “ORAC” value in test [2] was 1.3 trolox equivalents and 1.3 ± 0.1 trolox equivalents.

As to `COc1ccc2[nH]cc(CCNc3ncnc4cc(OC)c(OC)cc34)c2c1` [Compound 11c, 6,7-dimethoxy-N-(2-(5-methoxy-1H-indol-3-yl)ethyl)quinazolin-4-amine], the inhibition at 1 µM in test [1] was 49%. Further, the “ORAC” value in test [2] was 2.2 trolox equivalents and 2.2 ± 0.03 trolox equivalents.

Consider `COc1cc2ncnc(N3CCOCC3)c2cc1OC(=O)C=Cc1ccc(O)cc1` [Compound 8b, 7-methoxy-4-morpholinoquinazolin-6-yl 3-(4-hydroxyphenyl)acrylate], for which the inhibition at 1 µM in test [1] turned out to be 26%. Further, the “ORAC” value in test [2] is 3.3 trolox equivalents and 3.3 ± 0.1 trolox equivalents.

Consider `COc1cc2ncnc(NC(C)Cc3c[nH]c4ccccc34)c2cc1OC` (stereo not drawn) [Compound 11b, N-(1-(1H-indol-3-yl)propan-2-yl)-6,7-dimethoxyquinazolin-4-amine], for which the inhibition at 1 µM in test [1] worked out at 66%. For the same compound, the “ORAC” value in test [2] is reported as 1.5 ± 0.1 trolox equivalents.

As to `COc1cc2ncnc(NCCc3c[nH]c4ccccc34)c2cc1OC` [Compound 11a, N-(2-(1H-indol-3-yl)ethyl)-6,7-dimethoxyquinazolin-4-amine], in test [1], the inhibition at 1 µM came to 72%; the IC50 was < 1000 nM and 760 nM. Also, the “ORAC” value in test [2] is given as 1.3 ± 0.1 trolox equivalents.
